Results on two compounds are retold here after patent US20030100595A1, “Oral dosage form of a sulfonamide prodrug” (priority 2001, published 2003).

Data set [1] in a line: Human pharmacokinetic study: valdecoxib blood plasma concentration by HPLC. In kind it is in vivo. The procedure:
Subjects drank 180 ml water one, two and three hours postdose. […] Rapid onset is a highly desirable feature of many therapies for COX-2 mediated disorders, particularly those accompanied by acute pain. […] Each subject received each of three treatments, in randomized sequence, treatments being separated by 15 days. […] Following each treatment, subjects drank 180 ml water one, two and three hours after the treatment.

Data set [2] deals with COX-1 (Homo sapiens, UniProt P23219). As to conditions: background statement, in words; cited from earlier work.
Chain of COX-1 (P23219 24-599): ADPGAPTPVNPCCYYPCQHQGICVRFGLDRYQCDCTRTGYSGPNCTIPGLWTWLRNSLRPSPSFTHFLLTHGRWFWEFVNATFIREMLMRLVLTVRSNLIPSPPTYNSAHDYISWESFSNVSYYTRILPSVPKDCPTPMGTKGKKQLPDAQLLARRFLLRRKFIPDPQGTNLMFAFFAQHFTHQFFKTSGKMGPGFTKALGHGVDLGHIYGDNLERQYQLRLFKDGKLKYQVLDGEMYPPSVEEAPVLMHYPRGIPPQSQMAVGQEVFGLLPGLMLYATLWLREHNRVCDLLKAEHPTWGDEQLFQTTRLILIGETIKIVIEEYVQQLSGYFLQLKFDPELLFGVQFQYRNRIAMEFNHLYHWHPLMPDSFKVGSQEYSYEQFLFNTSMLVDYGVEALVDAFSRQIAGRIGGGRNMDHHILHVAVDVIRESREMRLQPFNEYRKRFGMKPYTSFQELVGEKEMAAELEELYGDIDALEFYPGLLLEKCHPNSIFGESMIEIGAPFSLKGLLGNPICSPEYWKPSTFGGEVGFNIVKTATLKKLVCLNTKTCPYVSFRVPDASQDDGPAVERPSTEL
The conditions of data set [3]: background statement, in words; cited from earlier work.

Structures are written as SMILES.

Broadly, the Tmax is the time from dosing to the highest level. As a reminder, the half-life is how long it takes for the measured level to halve. A lower half-life goes with rapid decline.

As for `Cc1onc(-c2ccccc2)c1-c1ccc(S(N)(=O)=O)cc1` [valdecoxib], in data set [1] (male, human, plasma, po, 20 mg), the Tmax turned out to be 3.11 h and the half-life is 7.69 ± 2.45 h. Further, in data set [2], the “in vitro inhibitory activity against COX-1” value is recorded as “weak”. Besides, the water solubility result in data set [3] is reported as “substantially water-insoluble”.

With `CCC(=O)NS(=O)(=O)c1ccc(-c2c(-c3ccccc3)noc2C)cc1` [parecoxib], the “conversion of parecoxib to valdecoxib” value in data set [1] (administered orally to a human subject) is “rapidly and completely converted to valdecoxib”. Further, the “in vitro inhibitory activity against COX-1” value in data set [2] was “weak”. For the same compound, the water solubility entry in data set [3] is listed as “high”.
